IC50 and Ratio IC50 data for one compound are collected here from ChEMBL document CHEMBL4196124, “Reverse Hydroxamate Inhibitors of Bone Morphogenetic Protein 1” (ACS Med Chem Lett, 2018).

For test [1], the target named is T1, Bone morphogenetic protein 1 (Homo sapiens, UniProt P13497).
T1 sequence (P13497 whole entry): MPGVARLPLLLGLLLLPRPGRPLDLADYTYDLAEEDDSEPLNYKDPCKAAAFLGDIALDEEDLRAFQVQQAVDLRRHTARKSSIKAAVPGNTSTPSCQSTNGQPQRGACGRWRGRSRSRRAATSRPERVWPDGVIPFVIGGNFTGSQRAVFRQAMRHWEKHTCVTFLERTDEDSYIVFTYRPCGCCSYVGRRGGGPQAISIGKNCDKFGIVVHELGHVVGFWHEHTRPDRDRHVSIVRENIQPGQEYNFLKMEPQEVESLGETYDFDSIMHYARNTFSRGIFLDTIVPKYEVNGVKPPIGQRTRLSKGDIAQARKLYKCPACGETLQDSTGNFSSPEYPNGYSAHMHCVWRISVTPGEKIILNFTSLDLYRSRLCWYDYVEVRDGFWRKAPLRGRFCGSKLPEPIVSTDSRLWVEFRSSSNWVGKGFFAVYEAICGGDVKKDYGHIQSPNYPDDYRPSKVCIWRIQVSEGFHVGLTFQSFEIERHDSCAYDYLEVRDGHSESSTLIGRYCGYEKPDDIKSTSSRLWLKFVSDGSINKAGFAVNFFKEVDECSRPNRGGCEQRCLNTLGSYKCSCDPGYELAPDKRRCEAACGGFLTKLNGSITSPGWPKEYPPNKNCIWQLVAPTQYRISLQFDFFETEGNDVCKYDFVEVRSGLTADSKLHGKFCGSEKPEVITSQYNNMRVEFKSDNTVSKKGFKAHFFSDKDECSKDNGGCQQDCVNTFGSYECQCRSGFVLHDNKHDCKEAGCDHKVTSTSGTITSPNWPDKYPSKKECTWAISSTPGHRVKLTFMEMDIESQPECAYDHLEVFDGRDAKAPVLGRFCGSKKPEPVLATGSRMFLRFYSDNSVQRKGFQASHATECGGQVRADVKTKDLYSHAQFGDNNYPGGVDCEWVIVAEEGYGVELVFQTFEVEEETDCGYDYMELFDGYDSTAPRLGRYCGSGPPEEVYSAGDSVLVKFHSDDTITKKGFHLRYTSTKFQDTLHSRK
Briefly: Inhibition of recombinant human N-terminal 6His/flag-tagged BMP1 (121 to 721 residues) expressed in CHO cells using ((5-FAM)-ELIDQYDVQRDDSSDGSLED-K(5,6 TAMRA)-CONH2) as substrate preincubated for 10 mins followed by substrate addition measured after 60 mins.

Test [2] addresses Macrophage metalloelastase (Homo sapiens, UniProt P39900). Briefly: Inhibition of MMP12 (unknown origin).
Test [3] is filed under the species Homo sapiens. Put plainly: Selectivity ratio of IC50 for ADAM9 (unknown origin) to IC50 for recombinant human N-terminal 6His/flag-tagged BMP1 (121 to 721 residues) expressed in CHO cells. Format: cell-based.
Test [4] is filed under the species Homo sapiens. Put plainly: Selectivity ratio of IC50 for ADAM10 (unknown origin) to IC50 for recombinant human N-terminal 6His/flag-tagged BMP1 (121 to 721 residues) expressed in CHO cells. The format is cell-based.
The species named for test [5] is Homo sapiens. Briefly: Selectivity ratio of IC50 for recombinant human C-terminal MMP1 (81 to 249 residues) catalytic domain expressed in Escherichia coli to IC50 for recombinant human N-terminal 6His/flag-tagged BMP1 (121 to 721 residues) expressed in CHO cells.
Test [6] is filed under the species Homo sapiens. Briefly: Selectivity ratio of IC50 for recombinant human C-terminal MMP2 (81 to 423 residues) catalytic domain expressed in Escherichia coli to IC50 for recombinant human N-terminal 6His/flag-tagged BMP1 (121 to 721 residues) expressed in CHO cells.
Test [7] is filed under the species Homo sapiens. Put plainly: Selectivity ratio of IC50 for recombinant human C-terminal MMP3 (83 to 255 residues) catalytic domain expressed in Escherichia coli to IC50 for recombinant human N-terminal 6His/flag-tagged BMP1 (121 to 721 residues) expressed in CHO cells.
For test [8], the species on record is Homo sapiens. Put plainly: Selectivity ratio of IC50 for MMP8 (unknown origin) to IC50 for recombinant human N-terminal 6His/flag-tagged BMP1 (121 to 721 residues) expressed in CHO cells. Format: cell-based.
For test [9], the species on record is Homo sapiens. Put plainly: Selectivity ratio of IC50 for recombinant human C-terminal MMP13 (85 to 255 residues) catalytic domain expressed in Escherichia coli to IC50 for recombinant human N-terminal 6His/flag-tagged BMP1 (121 to 721 residues) expressed in CHO cells.
For test [10], the species on record is Homo sapiens. Briefly: Selectivity ratio of IC50 for recombinant human His-tagged TACE (1 to 671 residues) expressed in insect cells to IC50 for recombinant human N-terminal 6His/flag-tagged BMP1 (121 to 721 residues) expressed in CHO cells.

The structures appear in SMILES notation.

Sequence of Macrophage metalloelastase (P39900 whole entry, the tested form may be a part): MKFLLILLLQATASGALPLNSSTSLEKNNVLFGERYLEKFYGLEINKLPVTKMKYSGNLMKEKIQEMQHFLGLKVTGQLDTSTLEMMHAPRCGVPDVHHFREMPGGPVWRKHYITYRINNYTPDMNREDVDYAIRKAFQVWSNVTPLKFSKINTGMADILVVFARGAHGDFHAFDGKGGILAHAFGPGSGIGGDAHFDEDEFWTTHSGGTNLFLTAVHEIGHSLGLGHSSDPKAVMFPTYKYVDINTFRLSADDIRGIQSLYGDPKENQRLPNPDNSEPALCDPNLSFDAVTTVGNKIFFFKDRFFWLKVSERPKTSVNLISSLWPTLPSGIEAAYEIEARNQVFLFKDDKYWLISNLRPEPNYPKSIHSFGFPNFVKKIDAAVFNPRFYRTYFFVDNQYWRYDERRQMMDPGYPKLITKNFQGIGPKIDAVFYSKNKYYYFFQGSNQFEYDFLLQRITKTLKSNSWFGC

A word on the IC50: it is the concentration at which inhibition is half-maximal. For `CCCCC[C@@H](C(=O)NCNC(=O)c1ccc(-c2ccccc2)o1)[C@@H](CC)N(O)C=O`, the IC50 was 0.032 µM in [1] and 10 µM in [2]. Further, the Ratio IC50 in test [3], in test [4], in test [5], in test [6], in test [7] and in [8] was over 30 each time. The Ratio IC50 in [9] and in [10] was over 30 in each case.
